We go through ten molecules from article PMC9762201 (Current Research in Pharmacology and Drug Discovery, 2022).

The test system of assay [1] is α1A-AR. Kind of assay: cAMP assay and PAM assay in Rat-1 fibroblasts expressing α1A-AR. It is filed as cell-based. The following applies: for PAM activity (NE-mediated cAMP potentiation, PAM assay): NE 10^−4 M held constant, compound dose-response; for intrinsic (basal) agonist activity, cAMP: compound alone, dose-response. (In general: Changes in cAMP serve as a functional read-out for many G protein-coupled receptors.)

Assay [2] has as its target T1, α1A-AR (Homo sapiens, UniProt P35348).
T1 sequence (P35348 1-466): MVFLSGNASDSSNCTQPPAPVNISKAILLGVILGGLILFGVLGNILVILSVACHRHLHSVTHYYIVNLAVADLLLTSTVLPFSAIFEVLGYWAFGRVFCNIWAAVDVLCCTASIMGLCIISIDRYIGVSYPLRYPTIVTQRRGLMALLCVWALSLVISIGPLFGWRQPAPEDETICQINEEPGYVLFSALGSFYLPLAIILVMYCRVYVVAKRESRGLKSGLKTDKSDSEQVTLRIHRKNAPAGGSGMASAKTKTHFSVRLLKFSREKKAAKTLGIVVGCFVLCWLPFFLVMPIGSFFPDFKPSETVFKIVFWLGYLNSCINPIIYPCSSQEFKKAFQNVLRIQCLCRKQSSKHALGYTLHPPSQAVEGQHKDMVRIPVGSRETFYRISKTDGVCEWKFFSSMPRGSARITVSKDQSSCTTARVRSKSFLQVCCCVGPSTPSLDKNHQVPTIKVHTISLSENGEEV
Nature of the assay: Total inositol phosphate assay in Rat-1 fibroblasts expressing α1A-AR. The class given is cell-based. The following applies: for intrinsic (basal) agonist activity, inositol phosphate: compound alone, dose-response.

Assay [3] deals with T1, α1A-AR. It is filed as binding. The following applies: for extent of inhibition of 125I-HEAT binding at α1A-AR: 0.5 mM GTP.
The test system of another assay is α1B-AR. It is filed as binding. The following applies: 0.5 mM GTP.
A further assay addresses T2, α1D-AR (Homo sapiens, UniProt P25100).
T2 sequence (P25100 1-572): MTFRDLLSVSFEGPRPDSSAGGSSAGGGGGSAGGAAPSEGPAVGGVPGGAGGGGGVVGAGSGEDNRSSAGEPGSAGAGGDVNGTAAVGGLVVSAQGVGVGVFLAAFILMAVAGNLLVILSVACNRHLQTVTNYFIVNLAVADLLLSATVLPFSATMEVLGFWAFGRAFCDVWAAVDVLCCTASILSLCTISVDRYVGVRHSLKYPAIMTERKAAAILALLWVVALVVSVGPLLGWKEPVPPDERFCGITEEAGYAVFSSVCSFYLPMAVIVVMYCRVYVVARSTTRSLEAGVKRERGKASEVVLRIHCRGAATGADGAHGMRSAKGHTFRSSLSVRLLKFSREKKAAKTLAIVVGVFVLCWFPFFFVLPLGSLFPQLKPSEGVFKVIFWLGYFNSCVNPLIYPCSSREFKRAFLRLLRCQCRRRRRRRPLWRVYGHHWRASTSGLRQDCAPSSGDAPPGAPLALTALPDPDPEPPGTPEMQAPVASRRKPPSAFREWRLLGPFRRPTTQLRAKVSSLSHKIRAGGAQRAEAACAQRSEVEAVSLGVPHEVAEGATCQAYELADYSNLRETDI
The class given is binding. The following applies: 0.5 mM GTP.

Assay [4] concerns the target T1, α1A-AR. The following applies: ref Hwa et al., 1995; cited from earlier work.
The target in the next assay is T3, α2A-AR (Homo sapiens, UniProt P08913).
T3 sequence (P08913 1-465): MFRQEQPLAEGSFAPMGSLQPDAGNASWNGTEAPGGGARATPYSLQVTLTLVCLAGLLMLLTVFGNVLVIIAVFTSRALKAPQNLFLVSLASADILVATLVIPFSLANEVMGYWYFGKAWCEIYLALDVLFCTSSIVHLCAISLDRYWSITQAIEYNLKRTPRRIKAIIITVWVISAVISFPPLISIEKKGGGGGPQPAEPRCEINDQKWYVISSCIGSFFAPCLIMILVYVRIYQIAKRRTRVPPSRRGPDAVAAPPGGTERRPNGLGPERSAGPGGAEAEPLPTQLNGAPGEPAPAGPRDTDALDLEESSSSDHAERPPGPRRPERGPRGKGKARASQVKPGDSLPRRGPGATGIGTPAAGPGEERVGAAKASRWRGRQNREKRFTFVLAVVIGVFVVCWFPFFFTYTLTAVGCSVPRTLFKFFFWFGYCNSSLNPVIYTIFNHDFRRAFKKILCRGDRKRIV
The class given is binding. The following applies: Cos-1 membranes.

“Also recorded” adds a separate entry of the source.

On to `Cc1c(OCC2=NCCN2)ccc(Cl)c1NS(C)(=O)=O` [RO115-1240, Dabuzalgron, reference compound], for which, in the assay on α1A-AR [1], the “PAM activity (NE-mediated cAMP potentiation, PAM assay)” value (from here on “PAM activity”) is reported as “neither RO115-1240 nor cirazoline displayed any PAM characteristics” and the “intrinsic (basal) agonist activity, cAMP” value is “partial agonists”. For the same molecule, at α1A-AR [2], the “effect on Epi-mediated inositol phosphate signal at α1A-AR” value is listed as “effects consistent with a partial or full agonist”; the “effect on NE-mediated inositol phosphate signal at α1A-AR” value is listed as “effects consistent with a partial or full agonist”; the “intrinsic (basal) agonist activity, inositol phosphate” value (shortened to “intrinsic … inositol phosphate”) was “partial agonists”.

For the molecule `NC[C@H](O)c1ccc(O)c(O)c1` [NE, norepinephrine], at α1A-AR [3] (absence of GTP), the “fraction of receptor in the high affinity state, NE alone” value was 15%.

As to `c1ccc(C2CC2)c(OCC2=NCCN2)c1` [cirazoline, reference compound], in the assay on α1A-AR [1] (Epi dose-response, propranolol and rauwolscine present), the “effect on Epi-mediated cAMP response at α1A-AR” value is on record as “rightward curve-shifting effects; also recorded: rightward shifting competitive effects”. Moreover, in the assay with α1A-AR [1], the “PAM activity” value is on record as “competitive inhibition; also recorded: neither RO115-1240 nor cirazoline displayed any PAM characteristics” and the “intrinsic (basal) agonist activity, cAMP” value is on record as “partial agonists; also recorded: greater intrinsic activity than RO115-1224”. Besides, the “effect on NE-mediated cAMP response at α1A-AR” value in the assay with α1A-AR [1] (NE dose-response, propranolol and rauwolscine present) is “rightward curve-shifting effects; also recorded: rightward shifting competitive effects”. Besides, the “binding at α1B-AR (125I-HEAT competition)” value in the assay on α1B-AR is “completely inhibited”. The “extent of inhibition of 125I-HEAT binding at α1D-AR” value on α1D-AR is given as “completely inhibited”. For the same molecule, the “extent of inhibition of 125I-HEAT binding at α1A-AR” value at α1A-AR [3] was “fully inhibit; also recorded: completely inhibited”. In addition, the “effect on NE binding at α1A-AR” value at α1A-AR [3] (compound 10^−5 M, absence of GTP, 125I-HEAT) is “fully-inhibited the binding of NE; also recorded: completely competes off NE binding”. For the same molecule, the “selectivity for α1A-AR against the α1B- and α1D-AR subtypes” value at α1A-AR [4] is recorded as 10-50 fold. Also, the “intrinsic … inositol phosphate” value on α1A-AR [2] is “partial agonists”.

Regarding `CC(C)Cc1c(OCC2=NCCN2)ccc(Cl)c1N(C)S(C)(=O)=O.Cl` [Cmpd-7, N-(6-Chloro-3-((4,5-dihydro-1H-imidazol-2-yl)methoxy)-2-isobutylphenyl)-N-methylmethanesulfonamide hydrochloride], the “PAM activity” value in the assay on α1A-AR [1] is listed as “abolished PAM activity”.

For `CN(c1cccc(OCC2=NCCN2)c1CC(C)(C)C)S(C)(=O)=O.Cl` [Cmpd-14, N-(3-((4,5-Dihydro-1H-imidazol-2-yl)methoxy)-2-neopentylphenyl)-N-methylmethanesulfonamide hydrochloride], in the assay on α1A-AR [1], the “PAM activity” value is given as “retained PAM activity; also recorded: display PAM effect” and the “intrinsic (basal) agonist activity, cAMP” value was “do not show any basal activity”. The “intrinsic … inositol phosphate” value at α1A-AR [2] is on record as “do not show any basal activity”.

On to `CN(c1cccc(OCC2=NCCN2)c1CC(F)(F)F)S(C)(=O)=O.Cl` [Cmpd-13, N-(3-((4,5-Dihydro-1H-imidazol-2-yl)methoxy)-2-(2,2,2-trifluoroethyl)phenyl)-N-methylmethanesulfonamide hydrochloride], for which, in the assay on α1A-AR [1], the “PAM activity” value is given as “lost PAM activity; also recorded: display competitive inhibition; also recorded: abolishes PAM activity” and the “intrinsic (basal) agonist activity, cAMP” value is given as “do not show any basal activity”. The “intrinsic … inositol phosphate” value on α1A-AR [2] is reported as “do not show any basal activity”.

Take `Cc1ccc(N(CC2=NCCN2)c2cccc(O)c2)cc1` [phentolamine]: the “extent of inhibition of 125I-HEAT binding at α1A-AR” value at α1A-AR [3] is “fully inhibit; also recorded: completely inhibited”.

As for `CC(C)Cc1c(OCC2=NCCN2)cccc1N(C)S(=O)(=O)C(C)C.Cl` [Cmpd-12, N-(3-((4,5-Dihydro-1H-imidazol-2-yl)methoxy)-2-isobutylphenyl)-N-methylpropane-2-sulfonamide hydrochloride], in the assay on α1A-AR [1], the “PAM activity” value was “lost PAM activity; also recorded: display competitive inhibition; also recorded: abolished PAM activity” and the “intrinsic (basal) agonist activity, cAMP” value was “do not show any basal activity”. Moreover, the “intrinsic … inositol phosphate” value at α1A-AR [2] is reported as “do not show any basal activity”.

As for `COC(=O)[C@H]1[C@H]2C[C@H]3c4[nH]c5ccccc5c4CCN3C[C@H]2CC[C@@H]1O` [rauwolscine, reference compound], the “extent of inhibition of 3H-RX821002 binding at α2A-AR” value on α2A-AR is “fully inhibited”.

On to `CC(C)CCc1c(OCC2=NCCN2)cccc1N(C)S(C)(=O)=O.Cl` [Cmpd-10, N-(3-((4,5-Dihydro-1H-imidazol-2-yl)methoxy)-2-isopentylphenyl)-N-methylmethanesulfonamide hydrochloride], for which, in the assay with α1A-AR [1], the “PAM activity” value was “retained PAM activity; also recorded: display PAM effect” and the “intrinsic (basal) agonist activity, cAMP” value was “do not show any basal activity”. Moreover, the “intrinsic … inositol phosphate” value on α1A-AR [2] is “do not show any basal activity”.
